Literature values, collected in US7402577B2, “Androstane 17-beta-carboxamides as androgen receptor modulators” (priority 2001, dated 2008).

Columns and labels:
spinal BMD = settings: after 7 years of treatment
fractures = settings: postmenopausal osteoporotic women, median of 22 months of treatment

Compound | increase in spinal BMD (spinal BMD) | reduction in nonvertebral fractures (fractures) | reduction in spine fractures (fractures)
NCCCC(O)(P(=O)([O-])O)P(=O)(O)O.O.O.O.[Na+] [alendronate, (4-amino-1-hydroxybutylidene)-bis-phosphonate monosodium trihydrate] | ≤ 11% |  | 
hPTH(1-34): human parathyroid hormone 1-34 fragment (SVSEIQLMHNLGKHLNSMERVEWLRKKLQDVHNF; Parathyroid hormone; UniProt P01270 32-65, looked up, fragment) |  | 54% | ≥ 65%
